The structures appear in SMILES notation.

One assay concerns the target porcine pancreatic PLA2 (Sus scrofa, UniProt P00592). Put plainly: Inhibition of porcine pancreatic phospholipase A2 (PLA2). In kind it is biochemical. Particulars: pH 8.5, 37°, 5 minutes, 14.0 uM substrate; approximation from semilog plot. As for the experimental part: Inhibition of porcine pancreatic PLA2 was measured by a modification of the assay used by Hirata et al., Proc. Natl. Acad. Sci. USA 77:533 (1980). The enzyme-substrate reaction was run in a total volume of 0.1 mL with the enzyme at a final concentration of 19 units/mL (0.025 ug protein/mL) which gave approximately 4000-8000 dpm of activity in a buffer containing 25 mM Tris, 25 mM glycylglycine, 25 mM CaCl2 and 0.75 mM EDTA (tetra sodium salt), pH 8.5. Compounds to be tested as inhibitors were added to an aliquot of enzyme and incubated for 2 minutes, and then the substrate, [arachidonyl-1-^14 C] L-1-palmitoyl-2-arachidonyl phosphatidylcholine was added to provide a final concentration of 14.0 uM (80,000 dpm). The reaction was allowed to proceed for five minutes at 37°, and then halted by freezing the mixture in a dry ice-ethanol slurry. The arachidonic acid product was separated from unreacted substrate using silica gel columns.
All reactions were run in duplicate. Compounds to be tested were dissolved in 0.2M Tris-Cl, pH 8.5 or dissolved in DMSO and then diluted with Tris-Cl buffer (maximum DMSO concentration, 7%). An approximation of IC50 (the concentration of compound which inhibits the phospholipase activity by 50 percent) was determined for each compound from a semilog plot of percent inhibition versus the final inhibitor concentration.

The test system of assay [1] is spontaneous hypertensive rat (SHR). The experiment in a line: Antihypertensive activity in the spontaneous hypertensive rat (SHR), intravenous. In kind it is in vivo. Also on record: key to Blood pressure response: ++: Pronounced decrease in blood pressure (>50 mm Hg); +: Moderate decrease in blood pressure (35-50 mm Hg); ±: Threshold decrease in blood pressure (25-35 mm Hg); NE: No effect observed. Particulars: for Blood pressure response: SHR. As for the experimental part: In this procedure, anesthetized rats were dosed intravenously with graded dose levels the test compound on a cumulative dose schedule. The test compound was administered in an aqueous 0.25% methylcellulose vehicle at a volume to body weight ratio of 1 mL/kg. Arterial blood pressure was continuously recorded directly through an arterial cannula and a polygraph. That dose of compound producing a reduction in mean blood pressure of 30 mm Hg, or ED30, was then determined. In this manner, an ED30 of 2.00 mg/kg was determined for compound 13BII.
The antihypertensive activity of other compounds within the scope of the present invention was determined by methods substantially similar to those reported in Example 2, above, except that intravenous dosage levels of 2 and 12 mg/kg were employed. The designation "prolonged" indicates a hypotensive response lasting from 15-30 minutes. The following designations are employed to indicate the magnitude of hypotensive response: […]

The subject of assay [2] is tetradecanoyl phorbol acetate (TPA)-induced edema in murine ear. Put plainly: Topical anti-inflammatory activity, TPA-induced mouse ear edema. In kind it is in vivo, male CF1 mice. Particulars: in acetone just prior to 1 μg TPA, 4 hours after TPA. As for the experimental part:
Topical application of tetradecanoyl phorbol acetate (TPA) to murine skin results in an inflammatory reaction characterized by edema, a dense cellular infiltration 4-6 hours later, and an epidermal hyperplasia 24 hours following application.
To evaluate the antiinflammatory activity of certain compounds within the scope of the present invention, TPA was applied topically to ear epidermal tissue of male CF1 mice 4-6 weeks old. One μg of TPA in acetone was applied topically to one ear, while acetone only was applied to the contralateral ear of each mouse. Test compounds to be evaluated as antiinflammatory agents were applied to both ears in acetone just prior to application of TPA. Four hours after the application of the TPA, the animals were sacrificed, and 6 mm disks of tissue were excised from each treated ear and weighed. The relative amount of edema was then assessed by determining the difference in mass between control and TPA-treated tissue samples.

Chain of porcine pancreatic PLA2 (P00592 23-146): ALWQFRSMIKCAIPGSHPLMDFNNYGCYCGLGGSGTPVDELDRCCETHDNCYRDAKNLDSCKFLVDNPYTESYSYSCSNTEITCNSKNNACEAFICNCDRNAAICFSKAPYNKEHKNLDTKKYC

In turn, `CCCCCCCCCCCCCCCCCCSCC(COP(=O)([O-])OCC[N+](C)(C)C)NC(=O)CCCCCCCCCCCCCCCCC` (stereo not shown) [Compound 13BI] displayed an IC50 against porcine pancreatic PLA2 of 0.55 µM.

With `CCCCCCCCCCCCCCCCSCC(COP(=O)([O-])OCC[N+](C)(C)C)NC(=O)OC` (stereo not shown) [Compound 13CII], the Blood pressure response entry in assay [1] (2 mg/kg) was “++ (Pronounced decrease in blood pressure (>50 mm Hg))”. Besides, 18 µM corresponded to half-maximal inhibition on porcine pancreatic PLA2 (IC50).

Regarding `CCCCCCSCC(COP(=O)([O-])OCC[N+](C)(C)C)NC(C)=O` (stereo not shown) [Compound 10E], the IC50 on porcine pancreatic PLA2 turned out to be 98 µM.

On to `CCCCCCCCCCCCCCCCSCC(COP(=O)([O-])OCC[N+](C)(C)C)NC(C)=O` (stereo not shown) [Compound 10C], for which, on porcine pancreatic PLA2, the IC50 came out at 1.1 µM.

As for `CCCCCCCCCCCCCCCCCCSCC(COP(=O)([O-])OCC[N+](C)(C)C)NC(=O)OC` (stereo not shown) [Compound 13BII, 3-octadecylthio-2-carbomethoxyamidophosphatidylcholine], the ED (30 mm Hg) in assay [1] (Rattus norvegicus, anesthetized SHR, cumulative dose schedule, aqueous 0.25% methylcellulose, read-out: ED30 (dose of compound producing a reduction in mean blood pressure of 30 mm Hg)) turned out to be 2 mg/kg. Also, the Blood pressure response entry in assay [1] (2 mg/kg) is “± (Threshold decrease in blood pressure (25-35 mm Hg))”; in assay [1] (12 mg/kg), “++ (Pronounced decrease in blood pressure (>50 mm Hg))”. On porcine pancreatic PLA2, this compound returned a half-maximal inhibitory concentration (IC50) of 19 µM.

As for `CCCCCCCCCCCCCCCCCCSCC(COP(=O)([O-])OCC[N+](C)(C)C)NC(C)=O` (stereo not shown) [Compound 10B, 3-Octadecylthio-2-acetamidophosphatidylcholine], in assay [1] (2 mg/kg), the Blood pressure response result is given as “++ (Pronounced decrease in blood pressure (>50 mm Hg))”. Also, the “Ear Volume Reduction (%)” value in assay [2] stood at 10%. This compound also registered an IC50 at porcine pancreatic PLA2 of 0.52 µM.

For `CCCCCCCCCCCCCCCCSCC(COP(=O)([O-])OCC[N+](C)(C)C)NC(=O)c1ccccc1` (stereo not shown) [Compound 13CIV], the Blood pressure response result in assay [1] (2 mg/kg) is listed as “NE”; in assay [1] (12 mg/kg), “± (Threshold decrease in blood pressure (25-35 mm Hg))”. Moreover, in assay [2], the “Ear Volume Reduction (%)” value was 57%. Also, on porcine pancreatic PLA2, half-maximal inhibition (IC50) was put at 1.4 µM.

For the compound `CCCCCCCCSCC(COP(=O)([O-])OCC[N+](C)(C)C)NC(C)=O` (stereo not shown) [Compound 10D], the Blood pressure response result in assay [1] (2 mg/kg) is “NE”; in assay [1] (12 mg/kg) it was “++ (Pronounced decrease in blood pressure (>50 mm Hg))”. This compound displayed a 50% inhibitory concentration (IC50) at porcine pancreatic PLA2 of 9 µM.

The term IC50 denotes the concentration at which inhibition is half-maximal.

Source of the values: patent US4702864A, “Analogs of platelet activating factor” (E. I. Du Pont de Nemours and Company, priority 1986, dated 1987).
